Assay results published in ChEMBL document CHEMBL1153320, “Development of the renal glucose reabsorption inhibitors: a new mechanism for the pharmacotherapy of diabetes mellitus type 2” (J Med Chem, 2009).
pEC50, pIC50, pKi: −log10 of the molar value.

How the values were obtained:
[1] = system: Homo sapiens; experiment: Antidiabetic activity in po dosed type 2 diabetes mellitus patient assessed as reduction in HbA1C level […]; format: functional; set-up: scale not given: the % may be the effect or the level left
[2] = system: Rattus norvegicus; experiment: Antidiabetic activity in normal Sprague-Dawley rat assessed as urinary glucose excretion at 1 mg/kg, po after 24 hrs; format: functional, Urine
[3] = system: Rattus norvegicus; experiment: Antidiabetic activity in normal Sprague-Dawley rat assessed as urinary glucose excretion at 10 mg/kg, po after 24 hrs; format: functional, Urine
[4] = system: Rattus norvegicus; experiment: Antidiabetic activity in normal Sprague-Dawley rat assessed as urinary glucose excretion at 3 mg/kg, po after 24 hrs; format: functional, Urine
[5] = system: Homo sapiens; experiment: Antidiabetic activity in po dosed type 2 diabetes mellitus patient assessed as reduction in HbA1C level in intestine; format: functional; set-up: scale not given: the % may be the effect or the level left
[6] = molecular target: T1, Sodium/glucose cotransporter 2 (Homo sapiens, UniProt P31639); experiment: Inhibition of human kidney SGLT2 assessed as renal glucose reabsorption
T1 sequence (P31639 whole entry): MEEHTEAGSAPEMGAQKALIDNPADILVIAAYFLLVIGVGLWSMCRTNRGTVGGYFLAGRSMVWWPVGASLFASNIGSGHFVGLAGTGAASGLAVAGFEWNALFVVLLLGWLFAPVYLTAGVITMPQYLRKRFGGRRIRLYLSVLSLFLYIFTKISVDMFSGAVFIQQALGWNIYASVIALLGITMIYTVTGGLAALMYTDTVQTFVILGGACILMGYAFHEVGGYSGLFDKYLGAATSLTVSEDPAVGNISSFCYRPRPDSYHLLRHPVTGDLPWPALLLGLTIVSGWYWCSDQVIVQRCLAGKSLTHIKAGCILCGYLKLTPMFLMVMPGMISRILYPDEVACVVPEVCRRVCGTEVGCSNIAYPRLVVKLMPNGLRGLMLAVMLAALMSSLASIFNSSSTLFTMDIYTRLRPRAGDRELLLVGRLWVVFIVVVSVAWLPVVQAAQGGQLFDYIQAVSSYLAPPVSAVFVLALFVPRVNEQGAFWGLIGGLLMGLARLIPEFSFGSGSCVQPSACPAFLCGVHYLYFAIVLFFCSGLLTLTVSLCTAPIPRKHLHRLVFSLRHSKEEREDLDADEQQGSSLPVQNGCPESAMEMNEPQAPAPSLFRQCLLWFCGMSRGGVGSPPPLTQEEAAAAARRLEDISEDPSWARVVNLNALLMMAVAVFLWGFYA

[7] = species: Homo sapiens; experiment: Selectivity for human SGLT2 over human SGLT1
[8] = clinical; conditions: human, in vivo, po
[9] = Half life in normal human at 10 to 100 mg/day, po administered as single ascending dose; conditions: in vivo
[10] = Clearance in normal human at 10 to 100 mg/day, po administered as single ascending dose; conditions: in vivo
[11] = system: Rattus norvegicus; experiment: Antidiabetic activity in normal Sprague-Dawley rat assessed as urinary glucose excretion at 300 mg/kg, po after 24 hrs; format: functional, Urine
[12] = system: Homo sapiens; experiment: Antidiabetic activity in po dosed type 2 diabetes mellitus patient assessed as reduction in HbA1C level in liver; format: functional; set-up: scale not given: the % may be the effect or the level left
[13] = system: Homo sapiens; experiment: Antidiabetic activity in po dosed type 2 diabetes mellitus patient assessed as reduction in HbA1C level in small intestine; format: functional; set-up: scale not given: the % may be the effect or the level left
[14] = system: Homo sapiens; experiment: Antidiabetic activity in type 2 diabetes mellitus patient assessed as reduction in HbA1C level at 750 mg, po daily measured after 12 weeks; format: functional; set-up: scale not given: the % may be the effect or the level left
[15] = species: Homo sapiens; experiment: Antidiabetic activity in type 2 diabetes mellitus patient assessed as reduction body weight; format: functional; set-up: scale not given: the % may be the effect or the level left
[16] = system: Homo sapiens; experiment: Antidiabetic activity in po dosed type 2 diabetes mellitus patient assessed as reduction in HbA1C level in adipose tissue; format: functional; set-up: scale not given: the % may be the effect or the level left
[17] = system: Homo sapiens; experiment: Antidiabetic activity in po dosed type 2 diabetes mellitus patient assessed as reduction in HbA1C level in skeletal muscle; format: functional, Muscle tissue; set-up: scale not given: the % may be the effect or the level left
[18] = system: Homo sapiens; experiment: Antidiabetic activity in normal human assessed as plasma glucose level at 500 mg, po after 4 hrs by OGTT; format: functional
[19] = system: Rattus norvegicus; experiment: Antidiabetic activity in normal Sprague-Dawley rat assessed as urinary glucose excretion at 30 mg/kg, po after 24 hrs; format: functional, Urine
[20] = system: Homo sapiens; experiment: Antidiabetic activity in normal human assessed as reduction urinary glucose excretion at 500 mg, po after 24 hrs; format: functional, Urine
[21] = system: Homo sapiens; experiment: Antidiabetic activity in over-weight subject assessed as reduction of body weight at […], po tid for 2 weeks; format: functional
[22] = system: Homo sapiens; experiment: Antidiabetic activity in normal human assessed as reduction urinary glucose excretion at 200 mg, po after 24 hrs; format: functional, Urine
[23] = system: Rattus norvegicus; experiment: Antidiabetic activity in normal Sprague-Dawley rat assessed as urinary glucose excretion at 100 mg/kg, po after 24 hrs; format: functional, Urine

For `CCC1=C(C)CN(C(=O)NCCc2ccc(S(=O)(=O)NC(=O)N[C@H]3CC[C@H](C)CC3)cc2)C1=O` [GLIMEPIRIDE], which Activity [1] is on record?
Its Activity is 1%.

What does the source list for `CCOC(=O)OC[C@H]1O[C@@H](Oc2nn(C(C)C)c(C)c2Cc2ccc(OC(C)C)cc2)[C@H](O)[C@@H](O)[C@@H]1O` [REMOGLIFLOZIN ETABONATE]?
Activity [2]: 36 mg; Activity [3]: 320 mg; Activity [4]: 95 mg

For `N[C@@H](CC(=O)N1CCn2c(nnc2C(F)(F)F)C1)Cc1cc(F)c(F)cc1F` [SITAGLIPTIN], which Activity [5] is on record?
The Activity was 0.6%.

With `Cc1cc(O)c(C(=O)CCc2ccc3occc3c2)c(O[C@@H]2O[C@H](CO)[C@@H](O)[C@H](O)[C@H]2O)c1` as the compound, how does the pIC50 [6] read?
Its pIC50 is 7.30.

With `COc1ccc(Cc2ccccc2O[C@@H]2O[C@H](CO)[C@@H](O)[C@H](O)[C@H]2O)cc1` [SERGLIFLOZIN A] as the compound, how does the pEC50 [6] read?
Its pEC50 is 8.05.

And the pKi [6]?
The pKi was 8.62.

And the Ratio [7]?
The Ratio was 296.

What does the source list for `CCOc1ccc(Cc2cc([C@@H]3O[C@H](CO)[C@@H](O)[C@H](O)[C@H]3O)ccc2Cl)cc1` [DAPAGLIFLOZIN]?
Activity [2]: 1100 mg; Tmax [8]: 1 h; half-life [9]: 15 h; CL/F [10]: 6 mL/min

With `Cc1c(Cc2ccc(OC(C)C)cc2)c(O[C@@H]2O[C@H](CO)[C@@H](O)[C@H](O)[C@H]2O)nn1C(C)C` [REMOGLIFLOZIN] as the compound, how does the pEC50 [6] read?
The pEC50 was 7.85.

And the pKi [6]?
The pKi was 7.91.

What about the Ratio [7] of the same compound?
Its Ratio is 365.

For `O=C(CCc1ccc(O)cc1)c1c(O)cc(O)cc1O[C@@H]1O[C@H](CO)[C@@H](O)[C@H](O)[C@H]1O` [PHLORIZIN], which Activity [11] is on record?
The Activity was 80 mg.

With `CN(C)C(=N)NC(=N)N` [METFORMIN] as the compound, how does the Activity [1] read?
Its Activity is 1%.

What about the Activity [12] of the same compound?
Its Activity is 1%.

And the Activity [5]?
Its Activity is 1%.

With `C[C@H]1O[C@H](O[C@H]2[C@H](O)[C@@H](O)[C@@H](O[C@H]3[C@H](O)[C@@H](O)C(O)O[C@@H]3CO)O[C@@H]2CO)[C@H](O)[C@@H](O)[C@@H]1N[C@H]1C=C(CO)[C@@H](O)[C@H](O)[C@H]1O` (stereo partly specified) [ACARBOSE] as the compound, how does the Activity [1] read?
Its Activity is 0.5%.

And the Activity [13]?
Its Activity is 0.5%.

What does the source list for `C/N=C(\N)N(C)C(=N)N.Cl` [METFORMIN XR]?
Activity [14]: 0.73%; Activity [15]: 2.3%

For `CN(CCOc1ccc(CC2SC(=O)NC2=O)cc1)c1ccccn1` (stereo unspecified) [ROSIGLITAZONE], which Activity [16] is on record?
The Activity was 0.5%.

And the Activity [12]?
Its Activity is 0.5%.

And the Activity [17]?
The Activity was 0.5%.

For `CCOC(=O)OC[C@H]1O[C@@H](Oc2ccccc2Cc2ccc(OC)cc2)[C@H](O)[C@@H](O)[C@@H]1O` [SERGLIFLOZIN ETABONATE], which Activity [18] is on record?
The Activity was 7 mmol·h/L.

And the Activity [3]?
The Activity was 180 mg.

What about the Activity [19] of the same compound?
The Activity was 400 mg.

What about the Activity [20] of the same compound?
The Activity was 17 g.

What about the Activity [21] of the same compound?
Its Activity is 1.5 kg.

What about the Activity [4] of the same compound?
Its Activity is 80 mg.

And the Activity [22]?
The Activity was 12 g.

With `CCc1ccc(Cc2ccccc2[C@@H]2O[C@H](CO)[C@@H](O)[C@H](O)[C@H]2O)cc1` as the compound, how does the pEC50 [6] read?
The pEC50 was less than 8.70.

For `CCOc1cc(CC(=O)N[C@@H](CC(C)C)c2ccccc2N2CCCCC2)ccc1C(=O)O` [REPAGLINIDE], which Activity [1] is on record?
Its Activity is 1%.

Which Activity [3] does the source give for `COC(=O)OC[C@H]1O[C@@H](Oc2cc(C)cc(O)c2C(=O)CCc2ccc3occc3c2)[C@H](O)[C@@H](O)[C@@H]1O` here?
Its Activity is 50 mg.

What about the Activity [19] of the same compound?
Its Activity is 450 mg.

What about the Activity [23] of the same compound?
The Activity was 1000 mg.

And the Activity [11]?
Its Activity is 2000 mg.

With `CCNC(=O)c1c(O)c(Cc2ccc(OC)cc2)cc([C@@H]2O[C@H](CO)[C@@H](O)[C@H](O)[C@H]2O)c1O` as the compound, how does the pEC50 [6] read?
The pEC50 was 6.30.
